Assays:
[1] = Plasma stability (37° C., pH 7.4), rat; type: in vitro ADME, Sprague-Dawley rat; conditions: test article 1 μM, 37° C.; for half-life at 1 μM: male, Sprague-Dawley, rat, plasma, pH 7.4, rat plasma, pH 7.4, read-out: Half-life; for % Remaining of Initial (n = 1), 0 min / % Remaining of Initial (n = 1), 15 min / % Remaining of Initial (n = 1), 30 min / % Remaining of Initial (n = 1), 60 min / % Remaining of Initial (n = 1), 120 min: rat plasma; for % Remaining of Initial (n = 1), 0 min: pH 7.4, 0 min; for % Remaining of Initial (n = 1), 15 min: pH 7.4, 15 min; for % Remaining of Initial (n = 1), 30 min: pH 7.4, 30 min; for % Remaining of Initial (n = 1), 60 min: pH 7.4, 60 min; for % Remaining of Initial (n = 1), 120 min: pH 7.4, 120 min
Procedure: (§1) Studies were carried out in mixed-gender human plasma (Lot #GLP530-5), male Sprague-Dawley rat (Lot #RAT297944, RAT313140), male CD-1 mouse (Lot #MSE237700), and male Beagle dog (Lot #BGL87670, BGL82614), collected on sodium heparin. Plasma was adjusted to pH 7.4 prior to initiating the experiments. DMSO stocks were first prepared for the test articles. Aliquots of the DMSO solutions were dosed into 700 μL of plasma, which had been pre-warmed to 37° C., at a final test article concentration of 1 μM. […] Samples were stored at 4° C. until the end of the experiment. After the final time point was sampled, the plate was mixed and then centrifuged at 3,000 rpm for 10 minutes. Calibration standards were prepared in matched matrix. […] Analytical conditions are outlined in Appendix 8-1.
as §1, with “#AS1650-2),” for “#GLP530-5),”, “#RAT297944),” for “#RAT297944, RAT313140),”, “CD-I” for “CD-1”, “#BGL91384),” for “#BGL87670, BGL82614),”, “10-1.” for “8-1.”
Studies were carried out in mixed-gender human plasma (Lot #AS1650-2), male Sprague-Dawley rat (Lot #RAT297944), male CD-1 mouse (Lot #MSE237700), and male Beagle dog (Lot #BGL91384), collected on sodium heparin. Plasma was adjusted to pH 7.4 prior to initiating the experiments. DMSO stocks were first prepared for test articles. […] Samples were stored at 4° C. until the end of experiment. After the final time point was sampled, the plate was mixed and then centrifuged at 3,000 rpm for 10 minutes. Calibration standards were prepared in matched matrix. […] Analytical conditions are outlined in Appendix 13-1.
Studies were carried out in mixed-gender human plasma (Lot #AS 1650-2), male Sprague-Dawley rat (Lot #RAT320835), male CD-1 mouse (Lot #MSE260693), and 6 male Beagle dog (Lot #BGL91384), on sodium heparin. Plasma was adjusted to pH 7.4 prior to initiating the experiments. DMSO stocks were first prepared for the test articles. Aliquots of the DMSO solutions were dosed into 700 μL of plasma, which had been pre-warmed to 37° C., at a final test article concentration of 1 μM. […] Samples were stored at 4° C. until the end of the experiment. After the final time point was sampled, the plate was mixed and then centrifuged at 3,000 rpm for 10 minutes. Calibration standards were prepared in matched matrix. […] Analytical conditions are outlined in Appendix 17-1.

in vitro = conditions: male, Beagle, dog; for Concentration (μM) of analyte PEA, 0 min / Concentration (μM) of analyte PEA, 10 min / Concentration (μM) of analyte PEA, 20 min / Concentration (μM) of analyte PEA, 30 min / Concentration (μM) of analyte PEA, 60 min / % Remaining of Initial (n = 1), 0 min / % Remaining of Initial (n = 1), 10 min / % Remaining of Initial (n = 1), 20 min / % Remaining of Initial (n = 1), 30 min / % Remaining of Initial (n = 1), 60 min: 1 μM; for % Remaining of Initial (n = 1), 0 min: s9, 0 h; for % Remaining of Initial (n = 1), 10 min: s9, 10 min; for % Remaining of Initial (n = 1), 20 min: s9, 20 min; for % Remaining of Initial (n = 1), 30 min: s9, 0.5 h; for % Remaining of Initial (n = 1), 60 min: s9, 1 h; for microsomal CLint at 1 μM: s9, CLint (mL/min/mg protein); for half-life at 1 μM: s9, Half-life (min)
Procedure: (§2) Reaction mixture, minus cofactors, was prepared as described below. Test article was added into the reaction mixture at a final concentration of 1 μM. […] An aliquot of the reaction mixture (without cofactor cocktail) was equilibrated in a shaking water bath at 37° C. for 3 minutes. The reaction was initiated by the addition of cofactor cocktail, and the mixture was incubated in a shaking water bath at 37° C. Aliquots (100 μL) were withdrawn at 0, 10, 20, 30, and 60 minutes. Test article samples were immediately combined with 300 μL of ice-cold acetonitrile containing 1% formic acid. Control samples were immediately combined with 400 μL of ice-cold 50/50 acetonitrile (ACN)/dH2O containing 0.1% formic acid and internal standard to terminate the reaction. Samples were then mixed and centrifuged to precipitate proteins. Calibration standards were prepared in matched matrix. Samples and standards were assayed by LC-MS/MS using electrospray ionization for both the dosed prodrug and the expected drug (PEA). Analytical conditions are outlined in Appendix 8-1. Test article concentration at each time point was compared to test article concentration at time 0 to determine the percent remaining at each time point. Halflives were calculated using GraphPad software, fitting to a single-phase exponential decay equation.
as §2, with “for 5” for “for 3”, “minutes. Reaction” for “minutes. The reaction”, “and” for “and the”, “both” for “both the”, “Appendix 10-1.” for “Appendix 8-1.”
Reaction mixture, minus cofactors, was prepared as described below. Test article was added into the reaction mixture at a final concentration of 1 μM. […] An aliquot of the reaction mixture (without cofactor cocktail) was equilibrated in a shaking water bath at 37° C. for 3 minutes. Reaction was initiated by the addition of cofactor cocktail, and the mixture was incubated in a shaking water bath at 37° C. Aliquots (100 μL) were withdrawn at 0, 10, 20, 30, and 60 minutes. Test article samples were immediately combined with 300 μL of ice-cold acetonitrile containing 1% formic acid. Control samples were immediately combined with 400 μL of ice-cold 50/50 acetonitrile (ACN)/dH2O containing 0.1% formic acid and internal standard to terminate the reaction. Samples were then mixed and centrifuged to precipitate proteins. Calibration standards were prepared in matched matrix. Samples and standards were assayed by LC-MS/MS using electrospray ionization for both dosed prodrug and expected drug (PEA). Analytical conditions are outlined in Appendix 13-1. Test article concentration at each time point was compared to test article concentration at time 0 to determine the percent remaining at each time point. Halflives were calculated using GraphPad software, fitting to a single-phase exponential decay equation.

Structure (SMILES)	half-life at 1 μM [1]	% Remaining of Initial (n = 1), 0 min [1]	% Remaining of Initial (n = 1), 15 min [1]	% Remaining of Initial (n = 1), 30 min [1]	% Remaining of Initial (n = 1), 60 min [1]	% Remaining of Initial (n = 1), 120 min [1]	Concentration (μM) of analyte PEA, 0 min (in vitro)	Concentration (μM) of analyte PEA, 10 min (in vitro)	Concentration (μM) of analyte PEA, 20 min (in vitro)	Concentration (μM) of analyte PEA, 30 min (in vitro)	Concentration (μM) of analyte PEA, 60 min (in vitro)	% Remaining of Initial (n = 1), 0 min (in vitro)	% Remaining of Initial (n = 1), 10 min (in vitro)	% Remaining of Initial (n = 1), 20 min (in vitro)	% Remaining of Initial (n = 1), 30 min (in vitro)	% Remaining of Initial (n = 1), 60 min (in vitro)	microsomal CLint at 1 μM (in vitro)	half-life at 1 μM (in vitro)
CCCCCCCCCCCCCCCC(=O)NCCOC(=O)CCC [Compound I-2]	49 min	100%	58%	59%	46%	18%	0.11 µM	0.40 µM	0.50 µM	0.53 µM	0.54 µM	100%	36%	12%	4.2%	<1.0%		
CCCCC/C=C\C/C=C\CCCCCCCC(=O)OCCNC(=O)CCCCCCCCCCCCCCC [Compound I-6]	110 min	100%	93%	119%	100%	29%	0.26 µM	0.42 µM	0.38 µM	0.35 µM	0.36 µM	100%	54%	53%	45%	38%	20.1 µL/min/mg	34 min
CC/C=C\C/C=C\C/C=C\C/C=C\C/C=C\CCCC(=O)OCCNC(=O)CCCCCCCCCCCCCCC [Compound I-5]	> 120 min	100%	85%	90%	87%	83%	0.13 µM	0.26 µM	0.25 µM	0.25 µM	0.28 µM	100%	50%	48%	36%	36%	26.3 µL/min/mg	26 min
CCCCCCCCCCCCCCCC(=O)NCCOC(=O)CCC(=O)OCC(COC(=O)CCCCCCC)OC(=O)CCCCCCC (stereo not shown) [Compound I-3, PEA-Succinate-Glycerol-Di-Caprylic]	> 120 min	100%	94%	79%	76%	79%	0.015 µM	0.23 µM	0.28 µM	0.29 µM	0.50 µM	100%	46%	46%	34%	18%	36.8 µL/min/mg	19 min
